Read-outs that look alike come from different tables or passages of the source.
Legend:
Format in all cases: cell-based
[1] = test system: HL-60 (human promyelocytic leukemia cells); assay: MTT inhibition of tumor cell growth, HL-60; conditions: Homo sapiens, HL-60, 48 h
Summary of the method: (§1)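 Compound exposure lasts 48 h at 37° C on cells plated at 5000-10000 per well in serum-containing medium. Viability is read by MTT reduction at 595 nm, and IC50 is computed with the two-point Reed and Muench method.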

[2] = test system: SMMC-7721 (human hepatoma cells); assay: MTT inhibition of tumor cell growth, SMMC-7721; conditions: Homo sapiens, SMMC-7721, 48 h
Summary of the method: as §1

[3] = test system: A-549 (Human lung adenocarcinoma cells); assay: MTT inhibition of tumor cell growth, A-549; conditions: Homo sapiens, A549, 48 h
Summary of the method: as §1

[4] = test system: MCF-7 (human breast cancer cells); assay: MTT inhibition of tumor cell growth, MCF-7; conditions: Homo sapiens, MCF7, 48 h
Summary of the method: as §1

[5] = test system: Wnt signaling pathway (Top-Flash reporter gene); assay: Top-Flash Wnt reporter gene assay in HEK293T cells with Wnt3a conditioned medium
Summary of the method: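 IC50 is the concentration giving relative residual reporter activity of 0.5 by 4-parameter logistic fit, after subtracting conditioned-medium DMSO background and normalizing to Wnt-induced signal. Luciferase read from HEK293T carrying TOP-flash and GFP internal standard, exposed 6 h to L-cell Wnt3a conditioned medium plus compound.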

[6] = Table 1, 7-hydroxy derivatives of S-3
[7] = Table 2, derivatives having potential Michael reaction acceptor
[8] = Table 3, single Michael reaction acceptor, modified lactonic ring
[9] = Table 4, derivatives obtained by reduction of the lactonic ring
[10] = Table 5, derivatives having double Michael reaction acceptor
[11] = Table 7 (first), alkaloid derivatives

SMILES: C=C1C(=O)[C@]23CC[C@H]1CC2[C@@]12CCC[C@@](C)(COC1=O)C2C[C@H]3O (stereo partly shown) [Compound 1, 15-oxospiramilactone]
- IC50 [1, 6]: 6.36 µM
- IC50 [1, 7]: 6.36 µM
- IC50 [1, 8]: 6.36 µM
- IC50 [1, 9]: 6.36 µM
- IC50 [1, 10]: 6.36 µM
- IC50 [1, 11]: 6.36 µM
- IC50 [2, 6]: 3.96 µM
- IC50 [2, 7]: 3.96 µM
- IC50 [2, 8]: 3.96 µM
- IC50 [2, 9]: 3.96 µM
- IC50 [2, 10]: 3.96 µM
- IC50 [2, 11]: 3.96 µM
- IC50 [3, 6]: 3.22 µM
- IC50 [3, 7]: 3.22 µM
- IC50 [3, 8]: 3.22 µM
- IC50 [3, 9]: 3.22 µM
- IC50 [3, 10]: 3.22 µM
- IC50 [3, 11]: 3.22 µM
- IC50 [4, 6]: 3.25 µM
- IC50 [4, 7]: 3.25 µM
- IC50 [4, 8]: 3.25 µM
- IC50 [4, 9]: 3.25 µM
- IC50 [4, 10]: 3.25 µM
- IC50 [4, 11]: 3.25 µM
- IC50 ([5]; Homo sapiens, HEK-293T, 6 h, Table 7 (second), derivatives modified on 7-hydroxyl of S-3, HEK293T, Wnt3a conditioned medium, 6 h, read-out: IC50 (μM), inhibitory activity on the Wnt signaling pathway): 18.4 ± 1.82 µM
- IC50 ([5]; Homo sapiens, HEK-293T, 6 h, Table 8, HEK293T, Wnt3a conditioned medium, 6 h, read-out: IC50 (μM), inhibitory activity on the Wnt signaling pathway): 18.7 ± 0.58 µM
- IC50 ([5]; Homo sapiens, HEK-293T, 6 h, Table 9, HEK293T, Wnt3a conditioned medium, 6 h, read-out: IC50(μM), inhibitory activity on the Wnt signaling pathway): 18 ± 0.28 µM
- IC50 ([5]; Homo sapiens, HEK-293T, 6 h, Table 10, HEK293T, Wnt3a conditioned medium, 6 h, read-out: IC50 (μM), inhibitory activity on the Wnt signaling pathway): 13.9 ± 2.01 µM
- IC50 ([5]; Homo sapiens, HEK-293T, 6 h, Table 11, HEK293T, Wnt3a conditioned medium, 6 h, read-out: IC50 (μM), inhibitory activity on the Wnt signaling pathway): 22.5 ± 0.56 µM
- IC50 ([5]; Homo sapiens, HEK-293T, footnotes of Tables 8 and 9: S-3 control in the run of the compounds marked a or b, read-out: corresponding IC50 value of S-3 (Wnt signaling pathway)): 18.4 µM
- IC50 ([5]; footnotes of Tables 8 and 9: S-3 control in the run of the compounds marked a or b, listed as S-3, read-out: corresponding IC50 value of S-3 (Wnt signaling pathway)): 15.3 µM
